Reference: patent US9850283B2, “Macrocyclic inhibitors of the PD-1/PD-L1 and CD80(B7-1)/PD-L1 protein/protein interactions” (BRISTOL-MYERS SQUIBB COMPANY, priority 2013, dated 2017)
Starred links: 1 amine or outer side, 2 acyl side, 3 side chain; linkers in the order of their positions; H or OH if unused. Positions of bridges follow the written chain, without caps; N, C: chain ends. Non-standard residues stand in square brackets, D forms with d. Residues, ends and D or L forms follow the SMILES beside them. Phe(3,4,5-F3) = N[C@@H](Cc1cc(F)c(F)c(F)c1)C(=O)O; X12 = O=C([C@H](Cc1cc(Cl)c(F)c(Cl)c1)N[*:1])[*:2]; X14 = O=C([C@H](Cc1cc(F)c(F)c(Cl)c1)N[*:1])[*:2]; Phe(3,5-Cl2) = N[C@@H](Cc1cc(Cl)cc(Cl)c1)C(=O)O; X15 = O=C([C@H](Cc1ccc(Cl)c(F)c1)N[*:1])[*:2]; Pro(4R-NH2) = N[C@H]1CN[C@H](C(=O)O)C1; X11 = CC1(C)CC[C@H](C(=O)[*:2])N1[*:1]; d(cisHyp) = O=C(O)[C@H]1C[C@@H](O)CN1; NMeF = CN[C@@H](Cc1ccccc1)C(=O)O; NMeE = CN[C@@H](CCC(=O)O)C(=O)O; NMeNle = CCCC[C@H](NC)C(=O)O; Orn = NCCC[C@H](N)C(=O)O; Sar = CNCC(=O)O

Tests used:
[1] = molecular target: T1, LK35.2-hPD-L1 cells / PE-labeled PD-1-Ig (Homo sapiens, UniProt Q9NZQ7); test: LK35.2-hPD-L1 cell binding high-content screening assay; type: cell-based; settings: cluster symbol; cell line of CBA not given (LK35.2-hPD-L1 or 293T-hPD-L1); read-out: CBA IC50 cluster
T1 construct: expressed in transfected cells; host or cells: LK35.2 mouse B cell line
T1 sequence (Q9NZQ7 19-290): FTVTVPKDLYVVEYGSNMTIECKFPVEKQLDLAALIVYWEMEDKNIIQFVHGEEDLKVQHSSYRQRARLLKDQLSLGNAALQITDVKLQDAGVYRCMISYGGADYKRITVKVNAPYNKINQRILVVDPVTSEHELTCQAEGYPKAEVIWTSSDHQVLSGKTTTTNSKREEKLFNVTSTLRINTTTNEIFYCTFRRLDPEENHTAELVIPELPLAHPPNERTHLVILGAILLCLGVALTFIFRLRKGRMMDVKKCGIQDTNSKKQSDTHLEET
How it was run: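 Binding of PE-conjugated human PD-1-Ig (1 nM final) to human PD-L1 stably expressed on a mouse B-cell line (LK35.2) was measured by high-content imaging after washes. Compound and labeled PD-1-Ig were co-incubated 1 h at 37 °C with cells in RPMI/10% FCS.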

Human PD-L1/PD-1 = molecular target: T2, Human PD-L1/PD-1 (Homo sapiens, UniProt Q9NZQ7); test: HTRF PD-1-Ig/PD-L1-His binding assay (human PD-L1); settings: cluster symbol; read-out: HTRF IC50 cluster
T2 construct: made in house; host or cells: HEK293T
T2 sequence (Q9NZQ7 with tags, fused parts or gaps): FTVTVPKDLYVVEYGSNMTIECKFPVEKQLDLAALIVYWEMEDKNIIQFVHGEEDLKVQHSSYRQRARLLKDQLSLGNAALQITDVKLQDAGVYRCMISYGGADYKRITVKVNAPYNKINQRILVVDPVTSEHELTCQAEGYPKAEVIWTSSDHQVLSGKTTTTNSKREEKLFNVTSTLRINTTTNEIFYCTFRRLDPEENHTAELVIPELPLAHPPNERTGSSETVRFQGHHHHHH
How it was run: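 Steps: truncated PD-1-Ig and PD-L1-His fusions are incubated in dPBS containing 0.1% (w/v) BSA and 0.05% (v/v) Tween-20. Detection antibodies are then added (Eu cryptate anti-Ig at 1 nM final, APC anti-His at 20 nM final), and time-resolved FRET is measured.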

SMILES	IC50 [1]	IC50 (Human PD-L1/PD-1)
CCCC[C@H]1C(=O)N2CCC[C@@H]2C(=O)N2C[C@H](O)C[C@H]2C(=O)N[C@@H](C(C)C)C(=O)N(C)[C@@H](Cc2ccccc2)C(=O)N[C@@H](Cc2ccc(O)cc2)C(=O)N(C)CC(=O)N[C@@H](Cc2c[nH]c3ccccc23)C(=O)N[C@@H](Cc2ccc(O)cc2)C(=O)N[C@@H](CC(C)C)C(=O)N[C@H](C(=O)NCC(N)=O)CSCC(=O)N[C@@H](Cc2ccccc2)C(=O)N(C)[C@@H](Cc2ccccc2)C(=O)N1C [Example 3174] (HELM PEPTIDE1{[O=C(C[*:3])[*:2]].F.[meF].[CCCC[C@@H](C(=O)[*:2])N(C)[*:1]].[dP].[Hyp].V.[meF].Y.[Sar].W.Y.L.C.G.[am]}$PEPTIDE1,PEPTIDE1,1:R3-14:R3$$$V2.0)	4.78 to 72.9 nM	> 30.5 nM
CCCC[C@H]1C(=O)N2CCC[C@@H]2C(=O)N2C[C@H](N)C[C@H]2C(=O)N[C@@H](C(C)C)C(=O)N(C)[C@@H](Cc2ccccc2)C(=O)N[C@@H](Cc2ccc(O)cc2)C(=O)N(C)CC(=O)N[C@@H](Cc2c[nH]c3ccccc23)C(=O)N[C@@H](Cc2ccc(O)cc2)C(=O)N[C@@H](CC(C)C)C(=O)N[C@H](C(=O)NCC(N)=O)CSCC(=O)N[C@@H](Cc2ccccc2)C(=O)N(C)[C@@H](Cc2ccccc2)C(=O)N1C [Example 3175] ({CH2CO}-F[NMeF][NMeNle][dP][Pro(4R-NH2)]V[NMeF]Y[Sar]WYLCG-NH2; thioether N-13)	4.78 to 72.9 nM	6.76 to 30.3 nM
CCCC[C@H]1C(=O)N(C)CC(=O)N[C@@H](CC(=O)O)C(=O)N[C@@H](C(C)C)C(=O)N(C)[C@@H](Cc2ccccc2)C(=O)N2CCC[C@H]2C(=O)N2CCC[C@@H]2C(=O)N[C@@H](Cc2c[nH]c3ccccc23)C(=O)N[C@@H](Cc2ccc(O)cc2)C(=O)N[C@@H](CC(C)C)C(=O)N[C@H](C(=O)NCC(N)=O)CSCC(=O)N[C@@H](Cc2ccccc2)C(=O)N(C)[C@@H](Cc2ccccc2)C(=O)N1C [Example 3176] (HELM PEPTIDE1{[O=C(C[*:3])[*:2]].F.[meF].[CCCC[C@@H](C(=O)[*:2])N(C)[*:1]].[Sar].D.V.[meF].P.[dP].W.Y.L.C.G.[am]}$PEPTIDE1,PEPTIDE1,1:R3-14:R3$$$V2.0)	> 74.3 nM	> 30.5 nM
CCCC[C@H]1C(=O)N(C)CC(=O)N[C@@H](CC(=O)O)C(=O)N[C@@H](C(C)C)C(=O)N(C)[C@@H](Cc2ccccc2)C(=O)N2C[C@H](O)C[C@H]2C(=O)N2CCC[C@@H]2C(=O)N[C@@H](Cc2c[nH]c3ccccc23)C(=O)N[C@@H](Cc2ccc(O)cc2)C(=O)N[C@@H](CC(C)C)C(=O)N[C@H](C(=O)NCC(N)=O)CSCC(=O)N[C@@H](Cc2ccccc2)C(=O)N(C)[C@@H](Cc2ccccc2)C(=O)N1C [Example 3177] (HELM PEPTIDE1{[O=C(C[*:3])[*:2]].F.[meF].[CCCC[C@@H](C(=O)[*:2])N(C)[*:1]].[Sar].D.V.[meF].[Hyp].[dP].W.Y.L.C.G.[am]}$PEPTIDE1,PEPTIDE1,1:R3-14:R3$$$V2.0)	> 74.3 nM	> 30.5 nM
CCCC[C@H]1C(=O)N(C)CC(=O)N[C@@H](CC(=O)O)C(=O)N[C@@H](C(C)C)C(=O)N(C)[C@@H](Cc2ccccc2)C(=O)N2C[C@H](N)C[C@H]2C(=O)N2CCC[C@@H]2C(=O)N[C@@H](Cc2c[nH]c3ccccc23)C(=O)N[C@@H](Cc2ccc(O)cc2)C(=O)N[C@@H](CC(C)C)C(=O)N[C@H](C(=O)NCC(N)=O)CSCC(=O)N[C@@H](Cc2ccccc2)C(=O)N(C)[C@@H](Cc2ccccc2)C(=O)N1C [Example 3178] ({CH2CO}-F[NMeF][NMeNle][Sar]DV[NMeF][Pro(4R-NH2)][dP]WYLCG-NH2; thioether N-13)	4.78 to 72.9 nM	6.76 to 30.3 nM
CCCC[C@H]1C(=O)N(C)CC(=O)N[C@@H](CC(=O)O)C(=O)N[C@@H](C(C)C)C(=O)N(C)[C@@H](Cc2ccccc2)C(=O)N[C@@H](Cc2ccc(O)cc2)C(=O)N(C)CC(=O)N[C@@H](Cc2c[nH]c3ccccc23)C(=O)N[C@@H](Cc2ccc(O)cc2)C(=O)N[C@@H](CC(C)C)C(=O)N[C@H](C(=O)NCC(N)=O)CSCC(=O)N[C@@H](Cc2cc(Cl)cc(Cl)c2)C(=O)N(C)[C@@H](Cc2ccccc2)C(=O)N1C [Example 3179] ({CH2CO}-[Phe(3,5-Cl2)][NMeF][NMeNle][Sar]DV[NMeF]Y[Sar]WYLCG-NH2; thioether N-13)	4.78 to 72.9 nM	> 30.5 nM
CCCC[C@H]1C(=O)N(C)CC(=O)N[C@@H](CC(=O)O)C(=O)N[C@@H](C(C)C)C(=O)N(C)[C@@H](Cc2ccccc2)C(=O)N[C@@H](Cc2ccc(O)cc2)C(=O)N(C)CC(=O)N[C@@H](Cc2c[nH]c3ccccc23)C(=O)N[C@@H](Cc2ccc(O)cc2)C(=O)N[C@@H](CC(C)C)C(=O)N[C@H](C(=O)NCC(N)=O)CSCC(=O)N[C@@H](Cc2ccc(Cl)c(F)c2)C(=O)N(C)[C@@H](Cc2ccccc2)C(=O)N1C [Example 3180] ({CH2CO}-[X15][NMeF][NMeNle][Sar]DV[NMeF]Y[Sar]WYLCG-NH2; thioether N-13)	0.158 to 4.71 nM	6.76 to 30.3 nM
CCCC[C@H]1C(=O)N(C)CC(=O)N[C@@H](CC(N)=O)C(=O)N[C@@H](C(C)C)C(=O)N(C)[C@@H](Cc2ccccc2)C(=O)N[C@@H](Cc2ccc(O)cc2)C(=O)N(C)CC(=O)N[C@@H](Cc2c[nH]c3ccccc23)C(=O)N[C@@H](Cc2ccc(O)cc2)C(=O)N[C@@H](CCCN)C(=O)N[C@H](C(=O)NCC(N)=O)CSCC(=O)N[C@@H](Cc2cc(F)c(F)c(F)c2)C(=O)N(C)[C@@H](Cc2ccccc2)C(=O)N1C [Example 3181] ({CH2CO}-[Phe(3,4,5-F3)][NMeF][NMeNle][Sar]NV[NMeF]Y[Sar]WY[Orn]CG-NH2; thioether N-13)	0.158 to 4.71 nM	0.385 to 6.74 nM
CCCC[C@H]1C(=O)N2C[C@H](O)C[C@@H]2C(=O)N[C@@H](CC(=O)O)C(=O)N[C@@H](C(C)C)C(=O)N(C)[C@@H](Cc2ccccc2)C(=O)N[C@@H](Cc2ccc(O)cc2)C(=O)N(C)[C@@H](CCC(=O)O)C(=O)N[C@@H](Cc2c[nH]c3ccccc23)C(=O)N[C@@H](Cc2ccc(O)cc2)C(=O)N[C@@H](CC(C)C)C(=O)N[C@H](C(=O)NCC(N)=O)CSCC(=O)N[C@@H](Cc2cc(F)c(F)c(F)c2)C(=O)N(C)[C@@H](Cc2ccccc2)C(=O)N1C [Example 3182] ({CH2CO}-[Phe(3,4,5-F3)][NMeF][NMeNle][d(cisHyp)]DV[NMeF]Y[NMeE]WYLCG-NH2; thioether N-13)	0.158 to 4.71 nM	0.385 to 6.74 nM
CCCC[C@H]1C(=O)N2C[C@H](O)C[C@@H]2C(=O)N[C@@H](CC(=O)O)C(=O)N[C@@H](C(C)C)C(=O)N(C)[C@@H](Cc2ccccc2)C(=O)N[C@@H](Cc2ccc(O)cc2)C(=O)N2CCC[C@@H]2C(=O)N[C@@H](Cc2c[nH]c3ccccc23)C(=O)N[C@@H](Cc2ccc(O)cc2)C(=O)N[C@@H](CC(C)C)C(=O)N[C@H](C(=O)NCC(N)=O)CSCC(=O)N[C@@H](Cc2cc(F)c(F)c(F)c2)C(=O)N(C)[C@@H](Cc2ccccc2)C(=O)N1C [Example 3183] ({CH2CO}-[Phe(3,4,5-F3)][NMeF][NMeNle][d(cisHyp)]DV[NMeF]Y[dP]WYLCG-NH2; thioether N-13)	0.158 to 4.71 nM	0.385 to 6.74 nM
CCCC[C@H]1C(=O)N(C)CC(=O)N[C@@H](CC(=O)O)C(=O)N[C@@H](C(C)C)C(=O)N(C)[C@@H](Cc2ccccc2)C(=O)N[C@@H](Cc2ccc(O)cc2)C(=O)N2[C@H](CCC2(C)C)C(=O)N[C@@H](Cc2c[nH]c3ccccc23)C(=O)N[C@@H](Cc2ccc(O)cc2)C(=O)N[C@@H](CC(C)C)C(=O)N[C@H](C(=O)NCC(N)=O)CSCC(=O)N[C@@H](Cc2ccccc2)C(=O)N(C)[C@@H](Cc2ccccc2)C(=O)N1C [Example 3184] ({CH2CO}-F[NMeF][NMeNle][Sar]DV[NMeF]Y[X11]WYLCG-NH2; thioether N-13)	> 74.3 nM	> 30.5 nM
CCCC[C@H]1C(=O)N(C)CC(=O)N[C@@H](CC(=O)O)C(=O)N[C@@H](C(C)C)C(=O)N(C)[C@@H](Cc2ccccc2)C(=O)N[C@@H](Cc2ccc(O)cc2)C(=O)N(C)CC(=O)N[C@@H](Cc2c[nH]c3ccccc23)C(=O)N[C@@H](Cc2ccc(O)cc2)C(=O)N[C@@H](CC(C)C)C(=O)N[C@H](C(=O)NCC(N)=O)CSCC(=O)N[C@@H](Cc2cc(Cl)c(F)c(Cl)c2)C(=O)N(C)[C@@H](Cc2ccccc2)C(=O)N1C [Example 3185] ({CH2CO}-[X12][NMeF][NMeNle][Sar]DV[NMeF]Y[Sar]WYLCG-NH2; thioether N-13)	4.78 to 72.9 nM	6.76 to 30.3 nM
CCCC[C@H]1C(=O)N(C)CC(=O)N[C@@H](CC(=O)O)C(=O)N[C@@H](C(C)C)C(=O)N(C)[C@@H](Cc2ccccc2)C(=O)N[C@@H](Cc2ccc(O)cc2)C(=O)N(C)CC(=O)N[C@@H](Cc2c[nH]c3ccccc23)C(=O)N[C@@H](Cc2ccc(O)cc2)C(=O)N[C@@H](CC(C)C)C(=O)N[C@H](C(=O)NCC(N)=O)CSCC(=O)N[C@@H](Cc2cc(F)c(F)c(Cl)c2)C(=O)N(C)[C@@H](Cc2ccccc2)C(=O)N1C [Example 3186] ({CH2CO}-[X14][NMeF][NMeNle][Sar]DV[NMeF]Y[Sar]WYLCG-NH2; thioether N-13)	0.158 to 4.71 nM	6.76 to 30.3 nM
CCCC[C@H]1C(=O)N2CCC[C@@H]2C(=O)N[C@@H](CC(=O)O)C(=O)N[C@@H](C(C)C)C(=O)N(C)[C@@H](Cc2ccccc2)C(=O)N[C@@H](CCCCN)C(=O)N2CCC[C@@H]2C(=O)N[C@@H](Cc2c[nH]c3ccccc23)C(=O)N[C@@H](Cc2ccc(O)cc2)C(=O)N[C@@H](CC(C)C)C(=O)N[C@H](C(=O)NCC(N)=O)CSCC(=O)N[C@@H](Cc2ccccc2)C(=O)N(C)[C@@H](Cc2ccccc2)C(=O)N1C [Example 3187] (HELM PEPTIDE1{[O=C(C[*:3])[*:2]].F.[meF].[CCCC[C@@H](C(=O)[*:2])N(C)[*:1]].[dP].D.V.[meF].K.[dP].W.Y.L.C.G.[am]}$PEPTIDE1,PEPTIDE1,1:R3-14:R3$$$V2.0)	0.158 to 4.71 nM	6.76 to 30.3 nM
